Entries after “also recorded” stand apart in the source; their conditions may differ. Counter-ions that a name gives are not always drawn.
How the values were obtained:
[1] = Pharmacokinetics (PK) test in cynomolgus monkeys; assay type: in vivo, cynomolgus monkey; conditions: male, plasma, cynomolgus monkey
Description: Cynomolgus monkeys (4 to 6 years old, male) were raised under the conditions of voluntary intake of solid food (Oriental Yeast Co., Ltd) and tap water and fasted from the evening of the day before initiation of administration and subjected to an experiment. Note that blood was sampled at 4 hours after administration (on and after 16:00), and thereafter feeding was restarted.
Dosing solution for intravenous administration was injected through the saphenous vein by use of a syringe needle (attached to a syringe barrel). The oral administration into the stomach was compulsively carried out by inserting a catheter into the nasal cavity.
The blood sampled was centrifuged at 4° C. and 1800×g for 15 minutes to obtain the plasma. The plasma thus obtained was stored at about −80° C. until use in preparation of analysis samples. The plasma obtained from a cynomolgus monkey to which a test compound was administrated, is referred to as a plasma sample; whereas the plasma obtained from a cynomolgus monkey to which a test compound was not administered, is referred to as the blank plasma.
The resulting solution was vortexed and cooled at 4° C. for 10 minutes. A sample for a calibration curve was prepared by adding a standard solution for a calibration curve to the blank plasma and subjecting the resulting mixture to the same treatment. After cooling, each of the samples was spun at 4° C. and 2000 rpm for 10 minutes by a centrifuge (Hitachi Koki Co., Ltd.). The resulting supernatant was used as a sample for LC/MS/MS analysis.
The resulting solution was vortexed and cooled at 4° C. for 10 minutes. A sample for a calibration curve was prepared by adding a standard solution for a calibration curve to the blank plasma and subjecting the resulting mixture to the same treatment. After cooling, each of the samples was spun at 4° C. and 2000 rpm for 10 minutes by a centrifuge (Hitachi Koki Co., Ltd.). The resulting supernatant was diluted 10 fold with 70 vol % acetonitrile containing 0.1 vol % formic acid and subjected as a sample for LC/MS/MS analysis. The LC/MS/MS analysis conditions were as follows:
The test-compound concentrations in the plasma at each sampling time point in the case of intravenous administration or oral administration were calculated and PK analysis was carried out for individual monkeys. PK parameters were calculated by using WinNonlin (Pharsight), in accordance with an analysis independent of a model (intravenous administration: Bolus IV Administration, oral administration: Extravascular Administration; Weight=1/y in both administrations). Furthermore, bioavailability (BA) was calculated based on the following Expression (3) by dividing AUC0-∞iv (time 0 to ∞) at the time of the intravenous administration and AUC0-∞po (time 0 to ∞) at the time of the oral administration by respective dose values to obtained as normalized values. Bioavailability (BA)=(AUC0-∞,po/dose)/(AUC0-∞,iv/dose) (3)

[2] = system: Canine aortic smooth muscle cells; test: Inducibility of cytoplasmic vacuolation in canine aortic smooth muscle cells; assay type: cell-based; set-up: key: Present: The term “present” in the tables means that cytoplasmic vacuolation was observed; Absent: the term “absent” means that cytoplasmic vacuolation was not observed; conditions: Concentration: 1.0 mmol/L, Treatment time: 24 hours
Description: (§1) As a test compound, the compound of Example 3, 9, 11, 12 or compounds of Comparative Examples 2 to 6 were used. Canine aortic smooth muscle cells (Canine Aortic Smooth Muscle Cells, supply source: Toyobo Co., Ltd.) or human aortic smooth muscle cells of (T/G HA-VSMG, supply source: ATCC) were treated with a test compound (1.0 or 1.2 mmol/L in concentration) for 24 hours or 2 weeks. The cells were stained with HE, immunohistochemically for LAMP-2 or toluidine blue, and thereafter the presence or absence of cytoplasmic vacuolation was determined by using an optical microscope.

[3] = system: human aortic smooth muscle cells (T/G HA-VSMG); test: Inducibility of cytoplasmic vacuolation in human aortic smooth muscle cells; assay type: cell-based; conditions: Concentration: 1.0 mmol/L, Treatment time: 24 hours, sulfate monohydrate
Description: as §1

Cr1: CD (SD) rats = test: Evaluation of safety in rat, two-week oral administration test; assay type: in vivo; conditions: for findings in examination items: in vivo, po
Description: As a test compound, the compound of Example 11 or Comparative Example 2 was used. The compound of Example 11 or Comparative Example 2 was administered orally to Cr1: CD (SD) rats (7 weeks old, female and male; from Charles River Laboratories, Inc.), for 2 weeks. Clinical observation, body weight measurement, food intake measurement, ophthalmologic examination (the compound of Example 11, alone), hematological examination, blood chemistry examination, urinalysis, bone marrow examination, pathological anatomical examination, organ weight measurement, histopathological examination and immunotoxicity test were carried out. In addition, toxicokinetics (TK) measurement was carried out on Day 1 and Day 14 after administration. It was confirmed that each test compound was exposed. The administration dose of a test compound was specified as 0, 250, 500, 1000 mg/kg/day and administration volume was specified as 10 mL/kg. As an administration solvent, phosphate-buffered saline was used for the compound of Example 11 and distilled water was used for the compound of Comparative Example 2.

[4] = system: mouse partial sciatic nerve ligation model (neuropathic pain); test: Mouse partial sciatic nerve ligation model (Seltzer model), von Frey test; assay type: in vivo; conditions: oral administration, von Frey test at 1, 2, 3 h
Description: The mouse partial sciatic nerve ligation model was prepared in accordance with the method of Seltzer et al. (Malmberg et al., Pain, vol. 76, p. 215-222, 1998).
Slc: ICR mice (5 weeks old, male; from Japan SLC, Inc.) or Cr1: CD1 (ICR) mice (5 weeks old, male; from CHARLES RIVER LABORATORIES JAPAN, INC.) were anesthetized with sodium pentobarbital (70 mg/kg, intraperitoneal administration). The sciatic nerve at the femoral region of the right hind paw of each mouse was exposed and triply ligated tightly with silk suture of 8-0 (from NATSUME SEISAKUSHO CO., LTD.) under a stereomicroscope so that only half thickness of the nerve was trapped in the ligature. A group of mice thus treated was designated as a partial sciatic nerve ligation group. A group of mice whose sciatic nerve was just exposed and not ligated was designated as a sham surgery group.
Evaluation of neuropathic pain (hereinafter referred to as von Frey test) was performed as follows. Mice were conditioned for at least one hour in an acrylic cage for measurement (from NATSUME SEISAKUSHO CO. LTD. or SHINANO SEISAKUSHO) placed on a wire net. Thereafter, using a filament (from North Coast Medical or neuroscience) which exerted a pressure of 0.16 g, the mice were subjected to mechanical tactile stimulus by applying the filament to the plantar surface of the right hind paw 3 times, each for 3 seconds, with an interval of 3 seconds.
Seven days after the sciatic nerve ligation surgery, the compound of Example 1, 2, 3, 4, 5, 7, 8, 9, 10, 11, 12 or 13 (10 mg/kg for each of the compounds of Example 1, 2, 3, 4, 5, 8, 10 and 13, 0.01 to 1 mg/kg for the compound of Example 7, 0.01 to 10 mg/kg for the compound of Example 9; 0.001 to 0.1 mg/kg for the compound of Example 11; and 0.01 to 1 mg/kg for the compound of Example 12) or pregabalin as a positive control (10 mg/kg; Bosche Scientific) was dissolved in distilled water and orally administered to mice of the partial sciatic nerve ligation group. The groups of the mice in the partial sciatic nerve ligation mouse to which the compound of Example 1, 2, 3, 4, 5, 7, 8, 9, 10, 11, 12 or 13 was administered were designated as a “partial sciatic nerve ligation+the compound of Example 1” group; a “partial sciatic nerve ligation+the compound of Example 2” group; a “partial sciatic nerve ligation+the compound of Example 3” group; a “partial sciatic nerve ligation+the compound of Example 4” group; a “partial sciatic nerve ligation+the compound of Example 5” group; a “partial sciatic nerve ligation+the compound of Example 7” group; a “partial sciatic nerve ligation+the compound of Example 8” group; a “partial sciatic nerve ligation+the compound of Example 9” group; a “partial sciatic nerve ligation+the compound of Example 10” group; a “partial sciatic nerve ligation+the compound of Example 11” group; a “partial sciatic nerve ligation+the compound of Example 12” group; and a “partial sciatic nerve ligation+the compound of Example 13” group, respectively. The partial sciatic nerve ligation mouse group to which pregabalin was administered was designated as a “partial sciatic nerve ligation+pregabalin” group. A group wherein distilled water was orally administered to the mice of the partial sciatic nerve ligation group was designated as a “partial sciatic nerve ligation+distilled water” group. A group wherein distilled water was orally administered to the mice of the sham surgery group was designated as a “sham surgery+distilled water” group.
The von Frey test was carried out before oral administration of a test compound (pre-value), one hour, two hours, and three hours after the oral administration of a test compound.
Slc: ICR mice (5 weeks old, male; Japan SLC, Inc.) were anesthetized with sodium pentobarbital (70 mg/kg, intraperitoneal administration).

[5] = system: mouse partial sciatic nerve ligation model (neuropathic pain); test: as above; assay type: in vivo; conditions: Comparative Example 7: oral, 7 days after ligation, 1-3 h after dosing; 0.01-1 mg/kg (Comp Ex 1), 10 mg/kg (Comp Ex 3-6, pregabalin); vs ligation+distilled water; t-test corrected by Dunnett

Row | Compound | bioavailability ([1]; 1 mg/kg oral vs 1 mg/kg intravenous, read-out: BA (bioavailability)) | clearance ([1]; intravenous administration 1 mg/kg, single, read-out: CLtot (total body clearance) (converted)) | AUC(0-inf) ([1]; oral administration 1 mg/kg, single) | Cmax ([1]; oral administration 1 mg/kg, single, read-out: Cmax (maximum plasma concentration)) | half-life ([1]; oral administration 1 mg/kg, single, read-out: t1/2 (elimination half-life in the plasma) (converted)) | Inducibility of cytoplasmic vacuolation [2] | Inducibility of cytoplasmic vacuolation [3] | findings in examination items (Cr1: CD (SD) rats; 250 mg/kg/day) | findings in examination items (Cr1: CD (SD) rats; 500 mg/kg/day) | no observed adverse effect level (Cr1: CD (SD) rats; oral, 2 weeks) | persistence of analgesic action [4] | time of strongest analgesic action after oral administration [4] | analgesic action in von Frey test (total score) [5]
1 | CN(C)C1CCN(C(=O)CCc2nccn2C)CC1 [Comparative Example 2, 1-(4-(dimethylamino)piperidin-1-yl)-3-(1-methyl-1H-imidazol-2-yl)propan-1-one sulfate monohydrate] | 42.6% | 8.35 mL/min/kg | 849 ng·h/mL | 146 ng/mL | 6.56 h | Present | has the inducibility of cytoplasmic vacuolation; also recorded: Present | abnormality was not observed | vacuolation was observed in e.g., the media of blood vessels of submandibular gland | 250 mg/kg/day |  |  | 
2 | CCCn1ccnc1CCC(=O)N1CCC(N(C)C)CC1 [Comparative Example 4, 1-(4-(dimethylamino)piperidin-1-yl)-3-(1-propyl-1H-imidazol-2-yl)propan-1-one hydrochloride] |  |  |  |  |  | Present |  |  |  |  | tended to decrease 2 hours and 3 hours later | one | statistically significant analgesic action
3 | CCCCn1ccnc1CCC(=O)N1CCC(N(C)C)CC1 [Comparative Example 5, 1-(4-(dimethylamino)piperidin-1-yl)-3-(1-butyl-1H-imidazol-2-yl)propan-1-one hydrochloride] |  |  |  |  |  | Present |  |  |  |  | tended to decrease 2 hours and 3 hours later | one | statistically significant analgesic action
4 | CCn1ccnc1CCC(=O)N1CCC(N(C)C)CC1 [Comparative Example 3, 1-(4-(dimethylamino)piperidin-1-yl)-3-(1-ethyl-1H-imidazol-2-yl)propan-1-one hydrochloride] |  |  |  |  |  | Present |  |  |  |  | tended to decrease 2 hours and 3 hours later | one | statistically significant analgesic action

— US10173999B2, “Cyclic amine derivative and pharmaceutical use thereof” (Toray Industries, Inc., priority 2015, dated 2019)
